The results in this text go back to ChEMBL document CHEMBL5291721, “A preclinical secondary pharmacology resource illuminates target-adverse drug reaction associations of marketed drugs” (Nat Commun, 2023).

The target in one assay is T1, Adenosine receptor A3 (Homo sapiens, UniProt P0DMS8).
T1 sequence (P0DMS8 whole entry): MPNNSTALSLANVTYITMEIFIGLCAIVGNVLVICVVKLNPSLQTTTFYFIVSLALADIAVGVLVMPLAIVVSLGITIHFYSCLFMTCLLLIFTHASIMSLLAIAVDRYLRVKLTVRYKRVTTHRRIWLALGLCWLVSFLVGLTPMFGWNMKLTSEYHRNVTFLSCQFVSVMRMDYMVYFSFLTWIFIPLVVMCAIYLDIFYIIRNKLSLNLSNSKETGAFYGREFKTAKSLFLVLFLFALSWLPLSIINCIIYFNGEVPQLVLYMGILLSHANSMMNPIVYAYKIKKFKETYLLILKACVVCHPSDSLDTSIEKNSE

The target in the next assay is T2, B2 bradykinin receptor (Homo sapiens, UniProt P30411).
T2 sequence (P30411 whole entry): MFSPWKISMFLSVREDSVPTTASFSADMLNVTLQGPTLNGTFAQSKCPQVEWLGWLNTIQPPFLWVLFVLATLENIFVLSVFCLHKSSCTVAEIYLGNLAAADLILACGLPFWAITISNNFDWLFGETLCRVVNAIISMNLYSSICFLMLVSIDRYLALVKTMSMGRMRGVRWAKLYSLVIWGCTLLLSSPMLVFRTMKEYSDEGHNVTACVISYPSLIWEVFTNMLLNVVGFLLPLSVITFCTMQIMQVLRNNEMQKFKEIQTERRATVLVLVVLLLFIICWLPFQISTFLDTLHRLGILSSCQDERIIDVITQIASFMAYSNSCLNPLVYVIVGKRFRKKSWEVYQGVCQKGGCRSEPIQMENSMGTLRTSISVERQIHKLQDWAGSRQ

For assay [1], the target named is T3, Muscarinic acetylcholine receptor M1 (Homo sapiens, UniProt P11229).
T3 sequence (P11229 whole entry): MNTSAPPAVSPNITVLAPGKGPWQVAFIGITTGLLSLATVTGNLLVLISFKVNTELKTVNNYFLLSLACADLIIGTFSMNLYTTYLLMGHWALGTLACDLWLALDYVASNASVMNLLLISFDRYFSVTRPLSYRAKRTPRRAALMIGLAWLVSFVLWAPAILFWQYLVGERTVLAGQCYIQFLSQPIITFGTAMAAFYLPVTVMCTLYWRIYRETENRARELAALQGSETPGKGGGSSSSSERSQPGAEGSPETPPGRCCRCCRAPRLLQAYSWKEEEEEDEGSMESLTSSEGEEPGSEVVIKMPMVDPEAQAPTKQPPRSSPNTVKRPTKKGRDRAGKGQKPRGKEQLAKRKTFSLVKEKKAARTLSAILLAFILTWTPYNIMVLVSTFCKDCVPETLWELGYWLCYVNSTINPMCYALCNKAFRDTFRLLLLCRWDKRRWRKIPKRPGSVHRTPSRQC
The format is functional.

Assay [2] concerns the target T4, Muscarinic acetylcholine receptor M2 (Homo sapiens, UniProt P08172).
T4 sequence (P08172 whole entry): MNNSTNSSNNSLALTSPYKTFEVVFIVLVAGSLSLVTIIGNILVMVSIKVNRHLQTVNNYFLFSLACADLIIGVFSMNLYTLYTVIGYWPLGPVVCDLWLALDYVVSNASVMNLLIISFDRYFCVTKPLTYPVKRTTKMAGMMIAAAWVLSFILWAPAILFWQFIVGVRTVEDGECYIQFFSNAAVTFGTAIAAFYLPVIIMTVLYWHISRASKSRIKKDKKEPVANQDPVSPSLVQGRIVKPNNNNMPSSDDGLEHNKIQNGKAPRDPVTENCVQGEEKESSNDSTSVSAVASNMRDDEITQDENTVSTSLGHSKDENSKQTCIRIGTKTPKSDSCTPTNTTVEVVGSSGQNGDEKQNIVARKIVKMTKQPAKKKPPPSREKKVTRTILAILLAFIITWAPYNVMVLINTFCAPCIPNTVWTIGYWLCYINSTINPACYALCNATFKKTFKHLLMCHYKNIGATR
The format is functional, cell-based.

In assay [3] the target is Muscarinic acetylcholine receptor M3 (Homo sapiens, UniProt P20309).
Muscarinic acetylcholine receptor M3, sequence (P20309 whole entry): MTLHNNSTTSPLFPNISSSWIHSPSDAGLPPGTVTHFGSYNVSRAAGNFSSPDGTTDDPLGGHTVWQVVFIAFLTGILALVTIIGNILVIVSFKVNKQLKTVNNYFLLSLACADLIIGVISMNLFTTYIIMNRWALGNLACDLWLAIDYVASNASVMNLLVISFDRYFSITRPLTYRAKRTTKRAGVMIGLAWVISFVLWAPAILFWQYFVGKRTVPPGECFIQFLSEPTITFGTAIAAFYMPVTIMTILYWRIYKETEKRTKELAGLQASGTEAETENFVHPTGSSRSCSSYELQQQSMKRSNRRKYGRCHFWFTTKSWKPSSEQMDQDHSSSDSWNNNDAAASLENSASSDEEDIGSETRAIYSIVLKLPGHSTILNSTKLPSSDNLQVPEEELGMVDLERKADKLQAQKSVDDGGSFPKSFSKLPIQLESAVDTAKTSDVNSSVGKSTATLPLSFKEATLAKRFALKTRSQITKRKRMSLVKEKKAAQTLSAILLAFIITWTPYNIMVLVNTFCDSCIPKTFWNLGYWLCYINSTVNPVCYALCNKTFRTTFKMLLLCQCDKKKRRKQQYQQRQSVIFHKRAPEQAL
Assay [4] has as its target Neuronal acetylcholine receptor subunit alpha-4 (Homo sapiens, UniProt P43681).
For the next assay, the target named is T5, Endothelin-1 receptor (Homo sapiens, UniProt P25101).
T5 sequence (P25101 whole entry): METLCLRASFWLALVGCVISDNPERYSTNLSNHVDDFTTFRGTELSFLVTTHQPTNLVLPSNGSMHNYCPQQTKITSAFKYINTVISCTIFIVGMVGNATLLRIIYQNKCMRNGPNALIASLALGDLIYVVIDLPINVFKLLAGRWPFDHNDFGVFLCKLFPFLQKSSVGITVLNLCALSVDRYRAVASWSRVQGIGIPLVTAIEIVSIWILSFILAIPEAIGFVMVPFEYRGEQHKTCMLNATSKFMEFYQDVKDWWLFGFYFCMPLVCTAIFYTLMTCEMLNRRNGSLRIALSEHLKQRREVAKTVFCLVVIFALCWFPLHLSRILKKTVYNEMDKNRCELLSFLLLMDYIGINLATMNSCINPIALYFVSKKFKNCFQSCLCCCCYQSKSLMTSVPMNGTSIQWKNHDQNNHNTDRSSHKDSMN

Assay [5] addresses Growth hormone secretagogue receptor type 1 (Homo sapiens, UniProt Q92847).
In assay [6] the target is 5-hydroxytryptamine receptor 2A (Homo sapiens, UniProt P28223). The class given is functional, cell-based.
5-hydroxytryptamine receptor 2A, sequence (P28223 whole entry): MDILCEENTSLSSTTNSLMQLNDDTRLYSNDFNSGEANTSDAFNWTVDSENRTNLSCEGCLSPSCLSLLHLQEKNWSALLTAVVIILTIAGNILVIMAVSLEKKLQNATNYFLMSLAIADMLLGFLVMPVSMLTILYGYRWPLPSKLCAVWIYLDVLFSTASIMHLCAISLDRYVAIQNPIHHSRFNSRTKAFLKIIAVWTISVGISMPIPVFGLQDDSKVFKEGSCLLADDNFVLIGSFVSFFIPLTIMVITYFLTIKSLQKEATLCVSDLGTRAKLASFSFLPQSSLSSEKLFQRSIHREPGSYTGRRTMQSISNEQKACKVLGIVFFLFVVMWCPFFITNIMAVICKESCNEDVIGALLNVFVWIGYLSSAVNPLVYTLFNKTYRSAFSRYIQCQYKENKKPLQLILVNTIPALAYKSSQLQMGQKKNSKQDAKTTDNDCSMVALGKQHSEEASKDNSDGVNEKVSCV
In assay [7] the target is T6, 5-hydroxytryptamine receptor 2B (Homo sapiens, UniProt P41595). The format is functional, cell-based.
T6 sequence (P41595 whole entry): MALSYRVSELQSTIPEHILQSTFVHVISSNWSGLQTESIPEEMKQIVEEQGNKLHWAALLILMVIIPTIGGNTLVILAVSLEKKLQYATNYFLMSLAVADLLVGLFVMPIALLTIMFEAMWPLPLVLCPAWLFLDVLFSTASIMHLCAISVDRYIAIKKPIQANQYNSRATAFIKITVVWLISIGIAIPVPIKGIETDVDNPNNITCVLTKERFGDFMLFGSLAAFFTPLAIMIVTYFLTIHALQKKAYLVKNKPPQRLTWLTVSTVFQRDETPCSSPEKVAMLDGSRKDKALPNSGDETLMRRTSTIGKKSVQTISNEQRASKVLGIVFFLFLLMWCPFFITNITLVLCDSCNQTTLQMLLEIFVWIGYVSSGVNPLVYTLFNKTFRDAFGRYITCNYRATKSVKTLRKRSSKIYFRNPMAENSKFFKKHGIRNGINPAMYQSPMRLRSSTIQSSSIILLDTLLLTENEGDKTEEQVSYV
Assay [8] deals with T6, 5-hydroxytryptamine receptor 2B. The format is functional, cell-based. This is another data set of the same source.
The target in assay [9] is cGMP-inhibited 3',5'-cyclic phosphodiesterase 3A (Homo sapiens, UniProt Q14432). The class given is functional.
cGMP-inhibited 3',5'-cyclic phosphodiesterase 3A, sequence (Q14432 whole entry): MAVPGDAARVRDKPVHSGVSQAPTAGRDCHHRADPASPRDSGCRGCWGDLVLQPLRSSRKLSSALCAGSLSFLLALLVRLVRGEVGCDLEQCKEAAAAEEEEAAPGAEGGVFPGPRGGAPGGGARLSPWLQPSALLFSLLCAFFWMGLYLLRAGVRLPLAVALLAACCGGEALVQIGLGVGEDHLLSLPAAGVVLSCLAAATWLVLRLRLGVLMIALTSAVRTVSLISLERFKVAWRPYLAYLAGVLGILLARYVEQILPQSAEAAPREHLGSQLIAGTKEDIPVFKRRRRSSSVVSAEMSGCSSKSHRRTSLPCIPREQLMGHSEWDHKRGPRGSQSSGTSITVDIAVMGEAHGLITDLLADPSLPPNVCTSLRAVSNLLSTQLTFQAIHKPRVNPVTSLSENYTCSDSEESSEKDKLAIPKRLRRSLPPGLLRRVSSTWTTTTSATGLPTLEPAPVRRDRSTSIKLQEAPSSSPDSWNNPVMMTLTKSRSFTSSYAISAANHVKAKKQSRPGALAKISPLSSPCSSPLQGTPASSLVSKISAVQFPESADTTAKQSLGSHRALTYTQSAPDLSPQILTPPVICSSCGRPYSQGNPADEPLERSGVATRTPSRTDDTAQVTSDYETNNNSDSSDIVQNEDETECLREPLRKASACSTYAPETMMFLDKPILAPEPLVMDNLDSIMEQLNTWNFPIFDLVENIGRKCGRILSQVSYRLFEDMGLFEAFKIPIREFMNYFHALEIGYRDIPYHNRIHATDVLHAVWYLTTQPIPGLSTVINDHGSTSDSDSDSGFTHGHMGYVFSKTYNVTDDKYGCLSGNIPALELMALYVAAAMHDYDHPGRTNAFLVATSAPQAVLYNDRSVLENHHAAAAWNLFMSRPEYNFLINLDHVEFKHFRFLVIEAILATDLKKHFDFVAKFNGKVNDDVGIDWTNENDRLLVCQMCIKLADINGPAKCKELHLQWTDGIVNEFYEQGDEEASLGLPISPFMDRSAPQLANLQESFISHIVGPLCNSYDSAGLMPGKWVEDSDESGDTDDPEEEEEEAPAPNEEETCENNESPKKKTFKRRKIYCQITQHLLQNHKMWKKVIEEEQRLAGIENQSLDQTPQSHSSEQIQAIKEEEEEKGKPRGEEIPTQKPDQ
In assay [10] the target is Beta-2 adrenergic receptor (Homo sapiens, UniProt P07550).
Beta-2 adrenergic receptor, sequence (P07550 whole entry): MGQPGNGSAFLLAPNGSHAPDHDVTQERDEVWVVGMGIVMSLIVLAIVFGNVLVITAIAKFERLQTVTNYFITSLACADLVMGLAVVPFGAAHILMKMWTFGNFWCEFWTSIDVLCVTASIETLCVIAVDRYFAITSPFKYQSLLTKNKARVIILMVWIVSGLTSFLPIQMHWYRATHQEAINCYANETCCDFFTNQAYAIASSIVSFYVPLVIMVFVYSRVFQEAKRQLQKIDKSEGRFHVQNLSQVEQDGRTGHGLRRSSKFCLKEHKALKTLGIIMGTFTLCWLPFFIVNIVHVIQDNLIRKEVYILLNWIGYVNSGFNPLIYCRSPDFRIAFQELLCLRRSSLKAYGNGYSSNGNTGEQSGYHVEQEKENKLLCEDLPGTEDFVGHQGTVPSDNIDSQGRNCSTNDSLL
Note: assay procedure not described here.

Growth hormone secretagogue receptor type 1, sequence (Q92847 whole entry): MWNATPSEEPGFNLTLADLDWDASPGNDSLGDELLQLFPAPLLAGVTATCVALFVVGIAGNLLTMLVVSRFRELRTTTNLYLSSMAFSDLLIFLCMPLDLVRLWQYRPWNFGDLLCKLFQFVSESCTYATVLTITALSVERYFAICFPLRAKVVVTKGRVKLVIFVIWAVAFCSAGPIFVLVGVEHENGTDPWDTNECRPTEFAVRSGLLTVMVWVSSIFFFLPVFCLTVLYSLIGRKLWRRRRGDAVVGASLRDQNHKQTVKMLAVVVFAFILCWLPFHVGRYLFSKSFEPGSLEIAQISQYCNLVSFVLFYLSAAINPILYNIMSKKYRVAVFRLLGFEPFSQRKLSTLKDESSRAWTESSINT
Neuronal acetylcholine receptor subunit alpha-4, sequence (P43681 whole entry): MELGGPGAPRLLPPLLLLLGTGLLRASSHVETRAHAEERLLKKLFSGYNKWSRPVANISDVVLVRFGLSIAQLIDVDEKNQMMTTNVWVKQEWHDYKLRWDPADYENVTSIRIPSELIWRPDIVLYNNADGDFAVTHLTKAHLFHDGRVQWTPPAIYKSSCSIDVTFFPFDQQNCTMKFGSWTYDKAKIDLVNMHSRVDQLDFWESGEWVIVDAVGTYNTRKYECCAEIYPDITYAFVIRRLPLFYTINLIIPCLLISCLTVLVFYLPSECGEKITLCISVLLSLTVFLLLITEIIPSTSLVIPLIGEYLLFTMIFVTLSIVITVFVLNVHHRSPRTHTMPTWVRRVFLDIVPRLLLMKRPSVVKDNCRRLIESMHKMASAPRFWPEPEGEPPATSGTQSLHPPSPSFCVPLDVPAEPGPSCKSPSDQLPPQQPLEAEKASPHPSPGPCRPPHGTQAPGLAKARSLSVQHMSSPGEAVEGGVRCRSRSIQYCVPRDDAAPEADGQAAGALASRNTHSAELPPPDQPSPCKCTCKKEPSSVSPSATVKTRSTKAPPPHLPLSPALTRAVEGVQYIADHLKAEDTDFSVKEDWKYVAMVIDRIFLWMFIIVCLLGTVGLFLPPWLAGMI

With `COc1ccc(-n2nc(C(N)=O)c3c2C(=O)N(c2ccc(N4CCCCC4=O)cc2)CC3)cc1` [APIXABAN], the half-maximal activity concentration (AC50) (on Adenosine receptor A3; on B2 bradykinin receptor; in assay [1]; in assay [2]; in assay [3]; in [4]) was over 30 µM in each case. The half-maximal activity concentration (AC50) (at Endothelin-1 receptor; in assay [5]; in assay [6]; in [7]; in assay [8]; in assay [9]) was over 30 µM each time.

Turning to `CC(=O)OCC1=C(C(=O)O)N2C(=O)[C@@H](NC(=O)Cc3cccs3)[C@H]2SC1` [CEPHALOTHIN], the AC50 (at Adenosine receptor A3; at B2 bradykinin receptor; in assay [1]; in assay [2]; in assay [3]; in assay [4]) was over 30 µM each time. Besides, the half-maximal activity concentration (AC50) (at Endothelin-1 receptor; in [5]; in [6]; in assay [7]; in assay [8]; in assay [9]) was over 30 µM each time.

With `C=C(c1ccccc1OCc1cccc(Cl)c1)n1ccnc1` [CROCONAZOLE], the AC50 (as a rule, the concentration giving half of the maximal activity seen) is 11.5 µM on Adenosine receptor A3; over 30 µM in assay [10]; over 30 µM on B2 bradykinin receptor; over 10 µM in assay [1]; over 10 µM in assay [2]; over 30 µM in assay [3]. Moreover, the AC50 in assay [4] is over 10 µM; in assay [5], over 30 µM; in [6], over 30 µM; in assay [7] it was over 10 µM; in [8], 8.5 µM; in assay [9], over 30 µM.

Regarding `CN(C)CCOC(=O)C(c1ccccc1)C1(O)CCCC1` (configuration not stated) [CYCLOPENTOLATE], the AC50 on Adenosine receptor A3 is over 10 µM; in assay [10], over 10 µM; at B2 bradykinin receptor, over 10 µM; in assay [1], 0.069 µM; in [2], over 10 µM; in assay [3], 0.04 µM. Besides, the AC50 in assay [4] was over 10 µM; in [5] it was over 10 µM; in assay [6] it was over 10 µM; in assay [7], over 10 µM; in assay [8] it was over 10 µM; in assay [9] it was over 30 µM.

On to `COC(=O)[C@H]1[C@H]2C[C@@H]3c4[nH]c5ccccc5c4CCN3C[C@H]2C[C@@H](OC(=O)c2cc(OC)c(OC)c(OC)c2)[C@@H]1OC` [DESERPIDINE], for which the half-maximal activity concentration (AC50) at Adenosine receptor A3 was 15.8 µM; in assay [10], over 10 µM; on B2 bradykinin receptor, over 30 µM; in assay [1], over 10 µM; in assay [2], over 10 µM; in assay [3], over 30 µM. In addition, the half-maximal activity concentration (AC50) is over 30 µM in assay [4]; 24.6 µM in assay [5]; over 10 µM in assay [6]; over 10 µM in assay [7]; over 10 µM in assay [8]; over 30 µM in assay [9].

For the compound `O=C(C[S+]([O-])Cc1ccco1)NC/C=C\COc1cc(CN2CCCCC2)ccn1` (configuration not stated) [LAFUTIDINE], the half-maximal activity concentration (AC50) on Adenosine receptor A3 is over 10 µM; in [10], over 10 µM; on B2 bradykinin receptor it was over 10 µM; in assay [1], over 10 µM; in [2], over 10 µM; in assay [3], over 30 µM. Further, the AC50 was over 10 µM in assay [4]; over 10 µM in assay [5]; over 30 µM in assay [6]; over 10 µM in assay [7]; over 10 µM in assay [8]; over 30 µM in [9].

Turning to `CCC1(CC)C(=O)NC(=O)N(C)C1=O` [METHARBITAL], the AC50 on Adenosine receptor A3 is over 10 µM; in assay [10], over 10 µM; on B2 bradykinin receptor, over 10 µM; in [1], over 10 µM; in assay [2], over 10 µM; in [3], over 30 µM. For the same compound, the AC50 in assay [4] is over 10 µM; in assay [5], over 10 µM; in assay [6] it was over 10 µM; in assay [7], over 10 µM; in assay [8], over 10 µM; in assay [9], over 30 µM.

As for `CCOC(=O)O[C@]1(C(=O)COC(=O)CC)CC[C@H]2[C@@H]3CCC4=CC(=O)C=C[C@]4(C)[C@H]3[C@@H](O)C[C@@]21C` [PREDNICARBATE], the AC50 on Adenosine receptor A3 was over 10 µM; in assay [10] it was over 10 µM; on B2 bradykinin receptor it was over 10 µM; in assay [1], over 10 µM; in assay [2] it was over 10 µM; in assay [3], over 30 µM. Besides, the half-maximal activity concentration (AC50) in [4] was over 10 µM; in [5], over 10 µM; in [6], over 10 µM; in assay [7] it was over 10 µM; in assay [8] it was over 10 µM; in assay [9] it was over 30 µM.

`CCC(=O)[C@@]1(C)[C@H](C)C[C@H]2[C@@H]3CCC4=CC(=O)C=C[C@]4(C)[C@H]3[C@@H](O)C[C@@]21C` [RIMEXOLONE]: the concentration at half-maximal activity (AC50) on Adenosine receptor A3 is over 10 µM; in assay [10] it was over 10 µM; at B2 bradykinin receptor it was over 10 µM; in assay [1], over 10 µM; in [2] it was over 10 µM; in [3] it was over 30 µM. Also, the AC50 in assay [4] is over 10 µM; in assay [5], over 10 µM; in assay [6], over 10 µM; in assay [7], over 10 µM; in [8] it was over 10 µM; in assay [9], over 30 µM.

For the compound `CC(C(=O)O)c1ccc(C(=O)c2ccccc2)s1` (configuration not stated) [TIAPROFENIC ACID], the concentration at half-maximal activity (AC50) at Adenosine receptor A3 was over 10 µM; in [10], over 10 µM; at B2 bradykinin receptor it was over 10 µM; in [1] it was over 10 µM; in [2], over 10 µM; in assay [3], over 30 µM. In addition, the concentration at half-maximal activity (AC50) in assay [4] was over 10 µM; in [5] it was over 10 µM; in [6] it was over 30 µM; in [7] it was over 10 µM; in assay [8], over 10 µM; in assay [9] it was over 30 µM.

On to `OCC(CO)N[C@H]1C[C@](O)(CO)[C@@H](O)[C@H](O)[C@H]1O` [VOGLIBOSE], for which the AC50 (at Adenosine receptor A3; in assay [10]; at B2 bradykinin receptor; in assay [1]; in [2]; in [3]) was over 30 µM throughout. Also, the half-maximal activity concentration (AC50) in assay [4], in assay [5], in [6], in assay [7], in [8] and in assay [9] was over 30 µM each time.
